Experimental data taken from patent US20120316105A1, “Polymyxin Derivates Useful As Antibacterial Agents” (priority 2011, published 2012).
Bridge positions count the residues as written; N and C are the ends. Square brackets hold non-standard residues; d marks the D form. Peptide text beside a SMILES is read from it. * marks the point of attachment. Quinoline3carbonyl = O=C(c1cnc2ccccc2c1)*; X37 = COc1cc(C(=O)*)cc(-c2ccccc2)n1; X15 = O=C(c1cccc(-c2cccc(F)c2)c1)*; X32 = N#Cc1cc(C(=O)*)ccc1-c1ccccc1; X6 = O=C(c1cccc(-c2ccc(F)cc2)c1)*; X11 = Cc1ccccc1-c1cccc(C(=O)*)c1; X27 = O=C(c1cncc(-c2ccccc2)c1)*; X28 = O=C(c1ccc(Oc2ccccc2)nc1)*; X8 = O=C(c1cc(-c2ccccc2)ccc1F)*; Dab = NCC[C@H](N)C(=O)O; Dap = NC[C@H](N)C(=O)O

Tests used:
[1] = system: AB-1649, polymyxin-resistant clinical isolate of Acinetobacter baumannii; assay type: cell-based; settings: AB-1649, polymyxin-resistant clinical isolate of
Method: (§1) Minimum bactericidal concentration (MBC, mg/L), minimum inhibitory concentration (MIC, mg/L), and human renal proximal tubule epithelial cell line cytotoxicity concentration 50% (hRPTEC, TC50, micromolar) for compounds of Formula I are listed in Table 2. The compounds of Formula I were tested as the corresponding trifluoroacetate salt except for Example 1 which was tested as the sulfate salt. For Table 2 below: PMB=polymyxin B as the sulfate salt (Bedford Laboratories, pharmaceutical grade); PMB1=polymyxin B1 as the trifluoroacetate salt; Nona=polymyxin B nonapeptide as the trifluoroacetate salt. PMB1 and Nona were prepared using the solid phase methodology described in the experimental section herein.
(§2) The in vitro antibacterial activity of compounds of Formula I was evaluated by MIC testing according to Clinical and Laboratory Standards Institute (CLSI). See: Clinical and Laboratory Standards Institute. Methods for Dilution Antimicrobial Susceptibility Tests for Bacteria that Grow Aerobically; Approved Standard-Eighth Edition. CLSI document M7-A8 [ISBN 1-56238-689-1]. Clinical and Laboratory Standards Institute, 940 West Valley Road, Suite 1400, Wayne, Pa. 19087-1898 USA, 2006; also Clinical and Laboratory Standards Institute. Performance Standards for Antimicrobial Susceptibility Testing; Twentieth Informational Supplement. CLSI document M100-S20 [ISBN 1-56238-716-2]. Clinical and Laboratory Standards Institute. Methods for Determining Bactericidal Activity of Antimicrobial Agents; Approved Guideline. CLSI document M26-A (ISBN 1-56238-384-1). CLSI, 940 West Valley Road, Suite 1400, Wayne, Pa. 19087-1898 USA, 1999.
AB-1649 is a polymyxin-resistant clinical isolate of Acinetobacter baumannii obtained from JMI labs (www.jmilabs.com);

[2] = system: PA-1646, polymyxin-resistant clinical isolate of Pseudomonas aeruginosa; assay type: cell-based; settings: PA-1646, polymyxin-resistant clinical isolate of
Method: as §1, §2
PA-1646 is a polymyxin-resistant clinical isolate of Pseudomonas aeruginosa obtained from JMI labs (www.jmilabs.com);

[3] = system: Pseudomonas aeruginosa strain PA01; assay type: cell-based; settings: strain
Method: as §1, §2
(§3) The MIC determination is a standard laboratory method for evaluating the antibacterial activity of a compound. The MIC represents the lowest drug concentration that inhibits visible growth of bacteria following overnight incubation. […] Typically, the drug concentration range is broken down into 2-fold increments (e.g. 0.06 mg/L, 0.12 mg/L, 0.25 mg/L, 0.50 mg/L, 1.0 mg/L, etc.) and the various drug concentrations are all individually incubated overnight with approximately the same number of bacteria. The MIC is then determined by visually inspecting the drug effect at each concentration, and identifying the lowest drug concentration that has inhibited bacterial growth as compared to the drug free control. Typically, bacteria continue to grow at drug concentrations lower than the MIC and don't grow at concentrations at and above the MIC.
(§4) The MIC values described in Table 2 below were derived from assays wherein each test compound was evaluated in duplicate. In cases where the duplicate values varied by 0-2-fold, the lower of the two values was reported below. Generally speaking, if the duplicate values varied by more than 2-fold, the assay was considered non-valid and was repeated until the variation between duplicate runs was ≦2-fold. In line with the CLSI guidelines referred to above, both control organisms and reference compounds were utilized in each MIC assay to provide proper quality control. MIC values generated with these control organisms and reference compounds were required to fall within a defined range for the assay to be considered valid and be included herein. Those skilled in the art will recognize that MIC values can and do vary from experiment to experiment. Generally speaking, it should be recognized that MIC values often vary +/−2-fold from experiment to experiment. While a single MIC is reported for each compound and each microorganism, the reader should not conclude that each compound was only tested once. Several of the compounds were subjected to multiple tests. The data reported in Table 2 is reflective of the compounds relative activity and different MICs may have been generated on these occasions in line with the guidelines described above.
(§5) The following bacterial strains were used in these MIC determinations: […]

[4] = system: PA-1646, polymyxin-resistant clinical isolate of Pseudomonas aeruginosa; assay type: cell-based; settings: PA-1646, polymyxin-resistant clinical isolate of; remark: listed apart in the source
Method: as §1, §2, §3, §4, §5

[5] = system: AB-3167, clinical isolate of Acinetobacter baumannii; assay type: cell-based; settings: AB-3167, clinical isolate of
Method: as §1, §2, §3, §4, §5

[6] = system: AB-1649, polymyxin-resistant clinical isolate of Acinetobacter baumannii; assay type: cell-based; settings: AB-1649, polymyxin-resistant clinical isolate of; remark: listed apart in the source
Method: as §1, §2, §3, §4, §5

[7] = Cytotoxicity assay (LDH release), hRPTEC; assay type: cell-based, human; settings: human
Method: as §1
Human Renal Proximal Tubule Epithelial cells (hRPTEC) were obtained from Lonza (Walkersville, Md., USA) and cultured in REGM (Renal Epithelial Cell Basal Medium supplemented with human epithelial growth factor, hydrocortisone, epinephrine, insulin, triiodothyronine, transferrin, gentamycin/amphotericin-B, and fetal bovine serum). The hRPTEC cells were seeded into 96-well plates and incubated at 37° C. in 5% CO2. Following a growth period of 72 hours, cells were treated with compounds at 100, 67, 44, 30, 20 and 13 micromolar for 24 hours at 37° C. in 5% CO2. The cell supernatant was then harvested for determination of LDH (lactate dehydrogenase) production. The Cytotoxicity Detection Kit from Roche was used for the measurement of LDH activity released from damaged cells. The Toxic Concentration 50% (TC50, micromolar) values were determined for each compound and compared to the control compounds (polymyxin B was used as a positive control and polymyxin B nonapepetide was used as negative control).

[8] = system: EC-1, mouse virulent strain of Escherichia coli; assay type: cell-based; settings: E. coli EC-1; overnight incubation, lower of duplicate values; trifluoroacetate salt (Example 1 and PMB sulfate)
Method: as §1, §2, §3, §4
The following bacterial strains were used in these MIC determinations:
EC-1 is a mouse virulent strain of Escherichia coli.

Cc1ccccc1-c1cccc(C(=O)N[C@@H](CCN)C(=O)N[C@H](C(=O)N[C@@H](CN)C(=O)N[C@H]2CCNC(=O)[C@H]([C@@H](C)O)NC(=O)[C@H](CCN)NC(=O)[C@H](CCN)NC(=O)[C@H](CC(C)C)NC(=O)[C@@H](Cc3ccccc3)NC(=O)[C@H](CCN)NC2=O)[C@@H](C)O)c1 [Example 21] (X11-[Dab]T[Dap][Dab][Dab][dF]L[Dab][Dab]T; lactam 4-C)
AB-1649 MBC [1]: 2 mg/L
PA-1646 MBC [2]: 2 mg/L
PA01 MIC [3]: 1 mg/L
PA-1646 MIC [4]: 2 mg/L
AB-3167 MIC [5]: 0.25 mg/L
AB-1649 MIC [6]: 2 mg/L
CC50 at 24 h [7]: 15 µM
EC-1 MIC [8]: 0.25 mg/L

CC(C)C[C@@H]1NC(=O)[C@@H](Cc2ccccc2)NC(=O)[C@H](CCN)NC(=O)[C@@H](NC(=O)[C@H](CN)NC(=O)[C@@H](NC(=O)[C@H](CCN)NC(=O)c2ccc(Oc3ccccc3)nc2)[C@@H](C)O)CCNC(=O)[C@H]([C@@H](C)O)NC(=O)[C@H](CCN)NC(=O)[C@H](CCN)NC1=O [Example 12] (X28-[Dab]T[Dap][Dab][Dab][dF]L[Dab][Dab]T; lactam 4-C)
AB-1649 MBC [1]: 4 mg/L
PA-1646 MBC [2]: 16 mg/L
PA01 MIC [3]: 1 mg/L
PA-1646 MIC [4]: 4 mg/L
AB-3167 MIC [5]: 0.25 mg/L
AB-1649 MIC [6]: 2 mg/L
CC50 at 24 h [7]: 61 µM
EC-1 MIC [8]: 0.25 mg/L

CC(C)C[C@@H]1NC(=O)[C@@H](Cc2ccccc2)NC(=O)[C@H](CCN)NC(=O)[C@@H](NC(=O)[C@H](CN)NC(=O)[C@@H](NC(=O)[C@H](CCN)NC(=O)c2cc(-c3ccccc3)ccc2F)[C@@H](C)O)CCNC(=O)[C@H]([C@@H](C)O)NC(=O)[C@H](CCN)NC(=O)[C@H](CCN)NC1=O [Example 34] (X8-[Dab]T[Dap][Dab][Dab][dF]L[Dab][Dab]T; lactam 4-C)
AB-1649 MBC [1]: 16 mg/L
PA-1646 MBC [2]: 8 mg/L
PA01 MIC [3]: 0.5 mg/L
PA-1646 MIC [4]: 2 mg/L
AB-3167 MIC [5]: 0.25 mg/L
AB-1649 MIC [6]: 16 mg/L
CC50 at 24 h [7]: 28 µM
EC-1 MIC [8]: 0.125 mg/L

CC(C)C[C@@H]1NC(=O)[C@@H](Cc2ccccc2)NC(=O)[C@H](CCN)NC(=O)[C@@H](NC(=O)[C@H](CN)NC(=O)[C@@H](NC(=O)[C@H](CCN)NC(=O)c2cnc3ccccc3c2)[C@@H](C)O)CCNC(=O)[C@H]([C@@H](C)O)NC(=O)[C@H](CCN)NC(=O)[C@H](CCN)NC1=O [Example 23] (Quinoline3carbonyl-[Dab]T[Dap][Dab][Dab][dF]L[Dab][Dab]T; lactam 4-C)
AB-1649 MBC [1]: 8 mg/L
PA-1646 MBC [2]: 4 mg/L
PA01 MIC [3]: 0.25 mg/L
PA-1646 MIC [4]: 4 mg/L
AB-3167 MIC [5]: 0.5 mg/L
AB-1649 MIC [6]: 4 mg/L
CC50 at 24 h [7]: > 100 µM
EC-1 MIC [8]: 0.125 mg/L

CC(C)C[C@@H]1NC(=O)[C@@H](Cc2ccccc2)NC(=O)[C@H](CCN)NC(=O)[C@@H](NC(=O)[C@H](CN)NC(=O)[C@@H](NC(=O)[C@H](CCN)NC(=O)c2cccc(-c3cccc(F)c3)c2)[C@@H](C)O)CCNC(=O)[C@H]([C@@H](C)O)NC(=O)[C@H](CCN)NC(=O)[C@H](CCN)NC1=O [Example 18] (X15-[Dab]T[Dap][Dab][Dab][dF]L[Dab][Dab]T; lactam 4-C)
AB-1649 MBC [1]: 2 mg/L
PA-1646 MBC [2]: 1 mg/L
PA01 MIC [3]: 1 mg/L
PA-1646 MIC [4]: 1 mg/L
AB-3167 MIC [5]: 0.5 mg/L
AB-1649 MIC [6]: 2 mg/L
CC50 at 24 h [7]: 22 µM
EC-1 MIC [8]: 0.25 mg/L

CC(C)C[C@@H]1NC(=O)[C@@H](Cc2ccccc2)NC(=O)[C@H](CCN)NC(=O)[C@@H](NC(=O)[C@H](CN)NC(=O)[C@@H](NC(=O)[C@H](CCN)NC(=O)c2cncc(-c3ccccc3)c2)[C@@H](C)O)CCNC(=O)[C@H]([C@@H](C)O)NC(=O)[C@H](CCN)NC(=O)[C@H](CCN)NC1=O [Example 30] (X27-[Dab]T[Dap][Dab][Dab][dF]L[Dab][Dab]T; lactam 4-C)
AB-1649 MBC [1]: 4 mg/L
PA-1646 MBC [2]: 4 mg/L
PA01 MIC [3]: 0.5 mg/L
PA-1646 MIC [4]: 2 mg/L
AB-3167 MIC [5]: 0.25 mg/L
AB-1649 MIC [6]: 4 mg/L
CC50 at 24 h [7]: 56 µM
EC-1 MIC [8]: 0.125 mg/L

COc1cc(C(=O)N[C@@H](CCN)C(=O)N[C@H](C(=O)N[C@@H](CN)C(=O)N[C@H]2CCNC(=O)[C@H]([C@@H](C)O)NC(=O)[C@H](CCN)NC(=O)[C@H](CCN)NC(=O)[C@H](CC(C)C)NC(=O)[C@@H](Cc3ccccc3)NC(=O)[C@H](CCN)NC2=O)[C@@H](C)O)cc(-c2ccccc2)n1 [Example 35] (X37-[Dab]T[Dap][Dab][Dab][dF]L[Dab][Dab]T; lactam 4-C)
AB-1649 MBC [1]: 4 mg/L
PA-1646 MBC [2]: 1 mg/L
PA01 MIC [3]: 0.5 mg/L
PA-1646 MIC [4]: 1 mg/L
AB-3167 MIC [5]: 0.5 mg/L
AB-1649 MIC [6]: 4 mg/L
CC50 at 24 h [7]: 24 µM
EC-1 MIC [8]: 0.25 mg/L

CC(C)C[C@@H]1NC(=O)[C@@H](Cc2ccccc2)NC(=O)[C@H](CCN)NC(=O)[C@@H](NC(=O)[C@H](CN)NC(=O)[C@@H](NC(=O)[C@H](CCN)NC(=O)c2cccc(-c3ccc(F)cc3)c2)[C@@H](C)O)CCNC(=O)[C@H]([C@@H](C)O)NC(=O)[C@H](CCN)NC(=O)[C@H](CCN)NC1=O [Example 20] (X6-[Dab]T[Dap][Dab][Dab][dF]L[Dab][Dab]T; lactam 4-C)
AB-1649 MBC [1]: 2 mg/L
PA-1646 MBC [2]: 1 mg/L
PA01 MIC [3]: 0.5 mg/L
PA-1646 MIC [4]: 1 mg/L
AB-3167 MIC [5]: 0.25 mg/L
AB-1649 MIC [6]: 2 mg/L
CC50 at 24 h [7]: 18 µM
EC-1 MIC [8]: 0.25 mg/L

CC(C)C[C@@H]1NC(=O)[C@@H](Cc2ccccc2)NC(=O)[C@H](CCN)NC(=O)[C@@H](NC(=O)[C@H](CN)NC(=O)[C@@H](NC(=O)[C@H](CCN)NC(=O)c2ccc(-c3ccccc3)c(C#N)c2)[C@@H](C)O)CCNC(=O)[C@H]([C@@H](C)O)NC(=O)[C@H](CCN)NC(=O)[C@H](CCN)NC1=O [Example 8] (X32-[Dab]T[Dap][Dab][Dab][dF]L[Dab][Dab]T; lactam 4-C)
AB-1649 MBC [1]: 1 mg/L
PA-1646 MBC [2]: 4 mg/L
PA01 MIC [3]: 1 mg/L
PA-1646 MIC [4]: 2 mg/L
AB-3167 MIC [5]: 0.25 mg/L
AB-1649 MIC [6]: 1 mg/L
CC50 at 24 h [7]: 32 µM
EC-1 MIC [8]: 0.5 mg/L
